Reference: EP0258006A2, “Monoclonal antibodies reactive with chlorinated dibenzo-p-dioxins and method of preparing and using same” (WE[…] CORPORATION, priority 1986, dated 1988)

Key:
[1] = tested on: ATCC HB 9183 antibody (monoclonal antibody, IgG1, produced by hybridoma ATCC HB 9183); assay: competitive inhibition enzyme immunoassay (CIEIA) with ATCC HB 9183 culture supernatant; type: binding, BALB/c mice; conditions: 1:5 dilution of culture supernatant preincubated 1 hour at room temperature with various concentrations of TCDD; linear curve in Figure 3
[2] = tested on: monoclonal antibodies reactive with 2,3,7,8-TCDD in hybridoma culture supernatants (the 6 of 384 cultures positive by CIEIA); assay: competitive inhibition enzyme immunoassay (CIEIA) of hybridoma culture supernatants; type: binding, BALB/c mice; conditions: culture supernatants preincubated with 1.0 × 10⁻⁴ M 2,3,7,8-TCDD; plates coated with BSA-adipamidoyl,3,7,8-trichlorodibenzo-p-dioxin conjugate; 6 positive cultures; 100 µM

Clc1cc2c(cc1Cl)Oc1cc(Cl)c(Cl)cc1O2 [2,3,7,8-TCDD, 2,3,7,8-tetrachlorodibenzo-p-dioxin]
binding of antibody to free TCDD (CIEIA, Figure 3) [1]: binds directly to free TCDD
inhibition of antibody binding to the solid phase-bound conjugate [2]: at least 50%
